The values that follow are results of earlier work, collected in patent US12691140B2, “Therapeutic carbon monoxide formulations” (THE BRIGHAM AND WOMEN'S HOSPITAL, INC., priority 2020, dated 2026).

The conditions of the series: dogs, abdominal insufflation to COHb levels comparable to inhalation.

SMILES strings stand for the structures.

On to `[C-]#[O+]` [CO, Carbon monoxide], for which the toxicity entry is “no toxicity”.
